Laboratory results reported in patent publication US5861476A, “Peptides and compounds that bind to the IL-1 receptor” (Affymax Technologies N.V., priority 1995, dated 1999).
Where a SMILES comes first, the peptide text is derived from it. Where no end group is shown, it is not given here. [ ]: non-standard residue; d: D form. Aze = O=C(O)[C@@H]1CCN1

How the values were obtained:
[1] = molecular target: T1, IL-1 induced E-selectin in HUVEC cells (Homo sapiens, UniProt P14778); test: Peptide Effects on IL-1 Induced E-Selectin (HUVEC Cells); type: cell-based; conditions: 120 pM IL-1α, read-out: IC50 (concentration required to inhibit 50% of IL-1 induced E-selectin expression)
T1 sequence (P14778 18-569): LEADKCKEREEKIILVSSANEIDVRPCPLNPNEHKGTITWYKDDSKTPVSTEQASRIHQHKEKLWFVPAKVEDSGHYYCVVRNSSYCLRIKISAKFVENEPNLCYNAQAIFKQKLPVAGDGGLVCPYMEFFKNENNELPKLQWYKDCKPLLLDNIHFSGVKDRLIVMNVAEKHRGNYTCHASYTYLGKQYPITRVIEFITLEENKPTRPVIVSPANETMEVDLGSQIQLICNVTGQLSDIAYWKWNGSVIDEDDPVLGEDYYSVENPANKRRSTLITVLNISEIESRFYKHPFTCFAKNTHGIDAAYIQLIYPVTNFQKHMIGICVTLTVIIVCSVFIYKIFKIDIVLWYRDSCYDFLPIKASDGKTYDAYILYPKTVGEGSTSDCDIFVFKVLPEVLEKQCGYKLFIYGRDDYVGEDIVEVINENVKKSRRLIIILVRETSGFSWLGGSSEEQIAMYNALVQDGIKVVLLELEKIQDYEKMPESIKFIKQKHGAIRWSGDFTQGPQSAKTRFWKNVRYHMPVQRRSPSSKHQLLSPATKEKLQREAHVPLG
Method: The compounds of the present invention were assayed for their ability to inhibit the expression of IL-1 induced E-selectin in HUVEC cells (human umbilical vein endothelial cells). HUVEC cells are grown to confluency in the wells of a 24-well microtiter plate. The compounds were serially diluted in DMEM/F12+0.1% BSA ("SFM"with 120 pM IL-1α. The cells were washed and then incubated with IL-1α and the compound to be tested for 15 minutes. The cells were again washed and incubated in SFM for 4 hours. The cells were washed and incubated with anti-selectin antibody for 30 minutes. Following antibody incubation, the cells were incubated with ^125 I Protein A and washed. The amount of ^125 I bound to the cells was then determined. The concentration of compounds required to inhibit 50% of IL-1 induced E-selectin expression is shown below.

[2] = molecular target: T2, IL-1 induced down-regulation of the epidermal growth factor (EGF) receptor in normal human dermal fibroblasts (NHDF) (Homo sapiens, UniProt P14778); test: Epidermal Growth Factor Receptor Down Regulation Assay; type: cell-based; conditions: 37° C., in the presence of IL-1α, 125I-labeled EGF binding, read-out: IC50 (approximate concentration which blocked 50% of the IL-1 induced down regulation of the EGF receptor)
T2 sequence (P14778 18-569): T1 sequence (P14778 18-569)
Text: The protocol set forth in Bird and Saklatvala (1989) J. Immunol. […] This assay examines the effect of the compounds of the invention on the IL-1 induced down-regulation of the epidermal growth factor (EGF) receptor as measured by the binding of ^125 I-labeled EGF to its receptor in normal human dermal fibroblasts (NHDF). […] The table below lists the approximate concentration of representative peptides of the invention which blocked 50% of the IL-1 induced down regulation of the EGF receptor. IC50 values are indicated symbolically by the symbols "-", "+", and "++". […] Those peptides which give IC50 values of less than or equal to 100 μM are given a "+", while those which give IC50 values of 500 nM or less are indicated with a "++". Those peptides which give IC50 values at or near the cutoff point for a particular symbol are indicated with a hybrid, e.g. "±". Those peptides for which IC50 values were not determined are listed as "N.D".

IL-1RtI = molecular target: T3, IL-1RtI (Homo sapiens, UniProt P14778); test: Inhibition of 125I-IL-1α binding to IL-1RtI (Example 3); conditions: inhibition of 125I-IL-1α binding to IL-1RtI; soluble peptide unless marked *
T3 construct: made in house; host or cells: recombinant host cells (one form soluble from baculovirus transformed host cells; another PIG-tailed and cleaved from the cell surface)
T3 sequence (P14778 18-336): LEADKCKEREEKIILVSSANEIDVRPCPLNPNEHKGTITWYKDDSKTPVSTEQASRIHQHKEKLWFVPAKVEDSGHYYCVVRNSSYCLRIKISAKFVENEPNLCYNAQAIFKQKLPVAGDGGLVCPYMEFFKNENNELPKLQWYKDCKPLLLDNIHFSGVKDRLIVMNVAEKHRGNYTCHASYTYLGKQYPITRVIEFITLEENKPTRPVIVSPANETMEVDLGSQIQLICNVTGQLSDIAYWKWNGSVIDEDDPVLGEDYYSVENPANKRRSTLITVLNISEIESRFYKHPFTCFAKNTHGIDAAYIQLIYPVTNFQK
How it was run: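 Competition with 90 pM 125I-IL-1α was run in duplicate for 2 h at 4 °C in HEPES-buffered RPMI with 1% BSA, pH 7.2-7.3, against either antibody-captured truncated receptor or cells with full-length IL-1RtI. Gamma counting of NaOH-detached material gave approximate IC50; high-affinity peptides used 24-well format.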

IC50 [1] [nM] | IC50 [2] [nM] | IC50 (IL-1RtI) [nM] | Compound
≤ 500 | 500 | ≤ 500 | CC(=O)N[C@@H](Cc1ccccc1)C(=O)N[C@@H](CCC(=O)O)C(=O)N[C@@H](Cc1c[nH]c2ccccc12)C(=O)N[C@H](C(=O)N1CCC[C@H]1C(=O)NCC(=O)N[C@@H](Cc1c[nH]c2ccccc12)C(=O)N[C@@H](Cc1ccc(O)cc1)C(=O)N[C@@H](CCC(N)=O)C(=O)N1CC[C@H]1C(=O)N[C@@H](Cc1ccc(O)cc1)C(N)=O)[C@@H](C)O [AcFEWTPGWYQJY--NH2] (Ac-FEWTPGWYQ[Aze]Y-NH2)
≤ 500 | ≤ 100000 | ≤ 500 | CC(=O)N[C@@H](Cc1ccccc1)C(=O)N[C@@H](CCC(=O)O)C(=O)N[C@@H](Cc1c[nH]c2ccccc12)C(=O)N[C@H](C(=O)N1CCC[C@H]1C(=O)NCC(=O)N[C@@H](Cc1ccc(O)cc1)C(=O)N[C@@H](Cc1c[nH]c2ccccc12)C(=O)N[C@@H](CCC(N)=O)C(=O)N1CC[C@H]1C(=O)N[C@@H](Cc1ccc(O)cc1)C(N)=O)[C@@H](C)O [AcFEWTPGYWQJY--NH2] (Ac-FEWTPGYWQ[Aze]Y-NH2)
≤ 500 | ≤ 100000 |  | CC(=O)N[C@@H](Cc1ccccc1)C(=O)N[C@@H](CCC(=O)O)C(=O)N[C@@H](Cc1c[nH]c2ccccc12)C(=O)N[C@H](C(=O)N1CCC[C@H]1C(=O)N[C@H](C)C(=O)N[C@@H](Cc1ccc(O)cc1)C(=O)N[C@@H](Cc1c[nH]c2ccccc12)C(=O)N[C@@H](CCC(N)=O)C(=O)N1CC[C@H]1C(=O)N[C@@H](Cc1ccc(O)cc1)C(N)=O)[C@@H](C)O [AcFEWTPaYWQJY--NH2] (Ac-FEWTP[dA]YWQ[Aze]Y-NH2)
≤ 500 | ≤ 100000 |  | CC(=O)N[C@@H](Cc1ccccc1)C(=O)N[C@@H](CCC(=O)O)C(=O)N[C@@H](Cc1c[nH]c2ccccc12)C(=O)N[C@H](C(=O)N1CCC[C@H]1C(=O)N[C@H](C)C(=O)N[C@@H](Cc1ccc(O)cc1)C(=O)N[C@@H](Cc1ccc(O)cc1)C(=O)N[C@@H](CCC(N)=O)C(=O)N1CC[C@H]1C(=O)N[C@@H](Cc1ccc(O)cc1)C(N)=O)[C@@H](C)O [AcFEWTPaYYQJY--NH2] (Ac-FEWTP[dA]YYQ[Aze]Y-NH2)

More lines, now with the values behind:

Compound | IC50 [1] [nM] | IC50 [2] [nM] | IC50 (IL-1RtI) [nM]
CC(C)C[C@H](NC(=O)[C@@H]1CCCN1C(=O)[C@H](CC(C)C)NC(=O)[C@H](C)NC(=O)[C@H](Cc1ccc(O)cc1)NC(=O)[C@@H]1CCN1C(=O)[C@H](CCC(N)=O)NC(=O)[C@H](Cc1c[nH]c2ccccc12)NC(=O)[C@H](Cc1ccc(O)cc1)NC(=O)CNC(=O)[C@@H]1CCCN1C(=O)[C@@H](NC(=O)[C@H](Cc1c[nH]c2ccccc12)NC(=O)[C@H](CCC(=O)O)NC(=O)[C@@H](N)Cc1ccccc1)[C@@H](C)O)C(=O)O [FEWTPGYWQJYALPL] (H-FEWTPGYWQ[Aze]YALPL-OH) | ≤ 500 | ≤ 500 | 
CC(C)C[C@H](NC(=O)[C@@H]1CCCN1C(=O)[C@H](CC(C)C)NC(=O)[C@H](C)NC(=O)[C@H](Cc1ccc(O)cc1)NC(=O)[C@@H]1CCN1C(=O)[C@H](CCC(N)=O)NC(=O)[C@H](Cc1ccc(O)cc1)NC(=O)[C@H](Cc1ccc(O)cc1)NC(=O)CNC(=O)[C@@H]1CCCN1C(=O)[C@@H](NC(=O)[C@H](Cc1c[nH]c2ccccc12)NC(=O)[C@H](CCC(=O)O)NC(=O)[C@@H](N)Cc1ccccc1)[C@@H](C)O)C(=O)O [FEWTPGYYQJYALPL] (H-FEWTPGYYQ[Aze]YALPL-OH) | ≤ 500 | ≤ 500 | 
TANVSSFEWTPGYWQPYALPL | ≤ 500 | ≤ 500 | ≤ 500
